In patent publication US6469013B2, “Therapeutic compounds” (Parker Hughes Institute, priority 1998, dated 2002):

Key:
[1] = target: T1, recombinant murine JAK3 (Mus musculus, UniProt Q62137); assay: Recombinant JAK3 immune complex kinase assay (baculovirus, Sf21); format: biochemical
T1 sequence (Q62137 1-1100): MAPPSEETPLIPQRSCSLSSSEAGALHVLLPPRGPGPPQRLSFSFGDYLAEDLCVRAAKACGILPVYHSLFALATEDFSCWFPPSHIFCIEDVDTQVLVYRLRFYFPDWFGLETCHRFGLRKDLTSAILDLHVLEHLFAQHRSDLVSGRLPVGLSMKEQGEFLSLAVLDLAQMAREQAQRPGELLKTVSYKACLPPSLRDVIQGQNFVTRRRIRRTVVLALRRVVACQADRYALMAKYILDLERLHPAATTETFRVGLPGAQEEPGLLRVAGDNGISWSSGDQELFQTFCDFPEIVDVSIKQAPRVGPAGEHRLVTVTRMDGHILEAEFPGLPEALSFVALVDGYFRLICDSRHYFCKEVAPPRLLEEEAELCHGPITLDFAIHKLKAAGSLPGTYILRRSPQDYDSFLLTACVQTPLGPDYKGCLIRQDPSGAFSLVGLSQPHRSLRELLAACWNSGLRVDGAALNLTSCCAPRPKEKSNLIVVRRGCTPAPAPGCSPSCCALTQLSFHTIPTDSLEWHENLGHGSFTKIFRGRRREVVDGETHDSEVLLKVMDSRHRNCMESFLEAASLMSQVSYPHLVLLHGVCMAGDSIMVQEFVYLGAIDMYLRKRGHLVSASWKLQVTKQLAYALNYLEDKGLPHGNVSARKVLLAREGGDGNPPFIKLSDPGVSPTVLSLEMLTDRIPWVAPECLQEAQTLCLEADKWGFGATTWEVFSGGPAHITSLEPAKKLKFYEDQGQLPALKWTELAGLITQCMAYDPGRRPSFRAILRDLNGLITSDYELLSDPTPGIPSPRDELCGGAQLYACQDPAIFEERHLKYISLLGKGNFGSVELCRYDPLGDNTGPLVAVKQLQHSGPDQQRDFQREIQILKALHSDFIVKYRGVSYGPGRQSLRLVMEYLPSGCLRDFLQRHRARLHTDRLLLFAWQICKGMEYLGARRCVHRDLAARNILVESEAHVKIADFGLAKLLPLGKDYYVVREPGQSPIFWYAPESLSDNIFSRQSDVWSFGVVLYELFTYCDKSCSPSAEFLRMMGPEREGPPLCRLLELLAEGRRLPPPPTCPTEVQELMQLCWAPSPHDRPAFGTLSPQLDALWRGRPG
Method: Sf21 (IPLB-SF21-AE) cells (Vassilev, A., et al., J. Biol. Chem. 274: 1646-1656, 1999) derived from the ovarian tissue of the fall armyworm Spodotera frugiperda, were obtained from Invitrogen (Carlsbad, Calif.) and maintained at 26-28° C. in Grace's insect cell medium supplemented with 10% FBS and 1.0% antibiotic/antimycotic (GIBCO-BRL). Stock cells were maintained in suspension at 0.2-1.6×10^6/ml in 600 ml total culture volume in 1 L Bellco spinner flasks at 60-90 rpm. Cell viability was maintained at 95-100% as determined by trypan blue dye exclusion. Sf21 cells were infected with a baculovirus expression vector for BTK, SYK, JAK1, JAK2, or JAK3. Cells were harvested, lysed (10 MM Tris pH7.6, 100 mM NaCl, 1% Nonidet P40, 10% glycerol, 50 mM NaF, 100 μM Na3VO4, 50 μg/ml phenylmethylsulfonyl fluoride, 10 μg/ml aprotonin, 10 μg/ml leupeptin), the kinases were immunoprecipitated from the lysates, and their enzymatic activity assayed, as reported (Vassilev, A., et al., J. Biol. Chem. 274: 1646-1656, 1999; Uckun, F. M., et al., Science. 22: 1096-1100, 1996; Goodman, P. A., et al., J. Biol. Chem. 273: 17742-48, 1998; Mahajan, S., et al., Mol. Cell. Biol. 15: 5304-11, 1995; and Uckun, F. M., et al., Science. 267: 886-91, 1995). The immunoprecipitates were subjected to Western blot analysis as previously described (Vassilev, A., et al., J. Biol. Chem. 274: 1646-1656, 1999; and Uckun, F. M., et al., Science. 22: 1096-1100, 1996).
In JAK3 immune complex kinase assays (17, 22), KL-2 EBV-transformed human lymphoblastoid B cells (native JAK3 kinase assays) or insect ovary cells (recombinant JAK3 kinase assays) were lysed with NP-40 lysis buffer (50 mM Tris, pH 8, 150 mM NaCl, 5 mM EDTA, 1% NP-40, 100 μM sodium orthovanadate, 100 μM sodium molybdate, 8 μg/ml aprotinin, 5 μg/ml leupeptin, and 500 μM PMSF) and centrifuged 10 min at 13000× g to remove insoluble material. Samples were immunoprecipitated with antisera prepared against JAK3. The antisera were diluted and immune complexes collected by incubation with 15 μl protein A Sepharose. After 4 washes with NP-40 lysis buffer, the protein A Sepharose beads were washed once in kinase buffer (20 mM MOPS, pH7, 10 mM MgCl2) and resuspended in the same buffer. Reactions were initiated by the addition of 25 μCi [γ^32P] ATP (5000 Ci/mMole) and unlabeled ATP to a final concentration of 5 μM. Reactions were terminated by boiling for 4 min in SDS sample buffer. Samples were run on 9.5% SDS polyacrylamide gels and labeled proteins were detected by autoradiography. […] For each drug concentration, a kinase activity index (KA) was determined by comparing the kinase activity in phosphorimager units (PIU) to that of the baseline sample. […]

[2] = system: C57BL/6 male mice; assay: Low-dose streptozotocin (LDSTZ) diabetes model; format: in vivo, mouse; conditions: 100 mg/kg daily i.p.
Method: C57BL/6 male mice or JAK3-deficient and WT mice (8-10-wk-old) were injected intraperitoneally with low-dose (40 mg/kg ) of STZ (Sigma, St Louis, Mo.) daily for 5 consecutive days, for induction of autoimmune experimental diabetes (LDSTZ). STZ was dissolved in citrate buffer pH 4.0 on ice, and injected within 10 min of preparation. Mice were monitored for diabetes development by testing blood glucose from the second week (day 7) after the STZ administrations by One Touch Profile diabetes tracking system (Lifescan, Milpitas, Calif.). Mice with glycemia over 220 mg/dl on three consecutive tests were considered diabetic, with the first detection of chronic glycemia taken as the date of diabetes onset. A group of C57BL/6 males was treated with WHI-P131-100 mg/kg/day, i.p., devided in two equal doses, from a beggining of the experiment till day 25.

SMILES: COc1cc2ncnc(Nc3ccc(O)cc3)c2cc1OC [WHI-P131, 4-(4′-hydroxyl-phenyl)-amino-6,7-dimethoxyquinazoline]
- IC50 ([1]; recombinant murine JAK3): 78 µM
- IC50 ([1]; recombinant murine JAK3, converted from μg/ml): ~78 µM
- diabetic mice ([2]; day 7 post first STZ injection): 20%
- diabetic mice ([2]; day 9): 50%
- diabetic mice ([2]; day 11): 65%
